Common to all, as to assay type: cell-based
One assay relates to ec308 (SHV-5). Put plainly: Tigemonam potentiation (MPC@4) by β-lactamase inhibitors. The following applies: tigemonam at 4 μg/mL; strain ec308, class A ESBL SHV-5; class symbols. As to the method:
(§1) Selected β-lactamase inhibitors were tested for their ability to potentiate the monobactam tigemonam. […] Tigemonam is present in the test medium at 4 μg/mL. Compounds tested at the highest concentration of 40 μg/mL. In this assay potency of compounds is determined as a concentration of BLIs to inhibit growth of bacteria in the presence of 4 μg/mL of […] (MPC@4).

The next assay deals with KP1007 (OXA-10, class D). Described as above. The settings on record: tigemonam at 4 μg/mL; strain KP1007, OXA-10, class D; class symbols. As to the method: as §1
Another assay deals with ec302 (TEM-10). The assay is described as above. The following applies: tigemonam at 4 μg/mL; strain ec302, class A ESBL TEM-10; class symbols. As to the method: as §1
A further assay has as its system KP1005 (CTX-M-14). The assay is described as above. The following applies: tigemonam at 4 μg/mL; strain KP1005, class A ESBL CTX-M-14; class symbols. As to the method: as §1
For another assay, the system named is KP1009 (CTX-M-15). The assay is described as above. The following applies: tigemonam at 4 μg/mL; strain KP1009, class A ESBL CTX-M-15; class symbols. As to the method:
as §1

For the next assay, the system named is KP1010 (SHV-12). Described as above. The settings on record: tigemonam at 4 μg/mL; strain KP1010, class A ESBL SHV-12; class symbols. As to the method:
as §1

In another assay the test system is ECL1002 (class C). Described as above. The following applies: tigemonam at 4 μg/mL; strain ECL1002, class C; class symbols. As to the method:
as §1

Another assay deals with EC1010 (CMY-6, class C). Described as above. The settings on record: tigemonam at 4 μg/mL; strain EC1010, CMY-6, class C; class symbols. As to the method:
as §1

The next assay has as its system PAM2035 (class C). The following applies: tigemonam at 4 μg/mL, strain PAM2035, class C. As to the method:
as §1

The test system of a further assay is KPX1001 (OXA-2, class D). Put plainly: Tigemonam potentiation (MPC@4) by β-lactamase inhibitors. The following applies: tigemonam at 4 μg/mL, strain KPX1001, OXA-2, class D. As to the method: as §1
The test system of the next assay is EC1009 (TEM-10). The assay is described as above. The following applies: tigemonam at 4 μg/mL; strain EC1009, class A ESBL TEM-10; class symbols. As to the method:
as §1

The next assay concerns ec304 (TEM-26). Described as above. The settings on record: tigemonam at 4 μg/mL; strain ec304, class A ESBL TEM-26; class symbols. As to the method: as §1
A further assay has as its system KP1012 (SHV-18). Described as above. The following applies: tigemonam at 4 μg/mL; strain KP1012, class A ESBL SHV-18; class symbols. As to the method: as §1

Molecules are shown by their SMILES. Where two headings read alike, the source gives them in different places.

Consider five molecules from patent US9012491B2, “Heterocyclic boronic acid ester derivatives and therapeutic uses thereof” (priority 2011, dated 2015).

For the molecule `CC(=O)N1CC(CC(=O)O)OB(O)[C@@H](NC(=O)Cc2cccs2)C1` (stereo partly drawn) [Compound 10, 2-((3R)-5-acetyl-2-hydroxy-3-(2-(thiophen-2-yl)acetamido)-1,5,2-oxazaborepan-7-yl)acetic acid], in the assay with ec308 (SHV-5), the “MPC4 SHV-5 ec308” value is “Y (Y = MPC@4 of 2 μg/mL to 10 μg/mL.)”. The “MPC4 OXA-10, KP1007” value in the assay with KP1007 (OXA-10, class D) was “X (X = MPC@4 of less than 2 μg/mL.)”. For the same molecule, in the assay with ec302 (TEM-10), the “MPC4 TEM-10 ec302” value is recorded as “Z (Z = MPC@4 of greater than 10 μg/mL.)”. Besides, in the assay on KP1005 (CTX-M-14), the “MPC4 CTX-M-14 KP1005” value is on record as “Y (Y = MPC@4 of 2 μg/mL to 10 μg/mL.)”. In the assay on KP1009 (CTX-M-15), the “MPC4 CTX-M-15 KP1009” value was “Y (Y = MPC@4 of 2 μg/mL to 10 μg/mL.)”. For the same molecule, the “MPC4 SHV-12 KP1010” value in the assay on KP1010 (SHV-12) is on record as “X (X = MPC@4 of less than 2 μg/mL.)”. Further, the “MPC4 ECL1002” value with ECL1002 (class C) is given as “Y (Y = MPC@4 of 2 μg/mL to 10 μg/mL.)”. Moreover, in the assay on EC1010 (CMY-6, class C), the “MPC4 CMY-6, EC1010” value is “Y (Y = MPC@4 of 2 μg/mL to 10 μg/mL.)”.
In the case of `O=C(O)CC1COC[C@H](NC(=O)Cc2cccs2)B(O)O1` (stereo partly drawn) [Compound 1, 2-((3R)-2-hydroxy-3-(2-(thiophen-2-yl)acetamido)-1,5,2-dioxaborepan-7-yl)acetic acid], in the assay with PAM2035 (class C) (class symbols), the “MPC4 PAM2035” value is on record as “Y (Y = MPC@4 of 2 μg/mL to 10 μg/mL.)”. For the same molecule, the “MPC4 SHV-5 ec308” value in the assay on ec308 (SHV-5) is on record as “Y (Y = MPC@4 of 2 μg/mL to 10 μg/mL.)”. In addition, in the assay with KP1007 (OXA-10, class D), the “MPC4 OXA-10, KP1007” value is given as “Y (Y = MPC@4 of 2 μg/mL to 10 μg/mL.)”. For the same molecule, in the assay on ec302 (TEM-10), the “MPC4 TEM-10 ec302” value is “Z (Z = MPC@4 of greater than 10 μg/mL.)”. Also, the “MPC4 OXA-2, KPX1001” value with KPX1001 (OXA-2, class D) (class symbols) is recorded as “X (X = MPC@4 of less than 2 μg/mL.)”. The “MPC4 CTX-M-14 KP1005” value with KP1005 (CTX-M-14) was “Y (Y = MPC@4 of 2 μg/mL to 10 μg/mL.)”. For the same molecule, in the assay on EC1009 (TEM-10), the “MPC4 TEM-10 EC1009” value was “Z (Z = MPC@4 of greater than 10 μg/mL.)”. For the same molecule, the “MPC4 TEM-26 ec304” value in the assay on ec304 (TEM-26) is “Z (Z = MPC@4 of greater than 10 μg/mL.)”. The “MPC4 CTX-M-15 KP1009” value with KP1009 (CTX-M-15) is on record as “Y (Y = MPC@4 of 2 μg/mL to 10 μg/mL.)”. The “MPC4 SHV-12 KP1010” value in the assay with KP1010 (SHV-12) is “X (X = MPC@4 of less than 2 μg/mL.)”. The “MPC4 ECL1002” value with ECL1002 (class C) was “Y (Y = MPC@4 of 2 μg/mL to 10 μg/mL.)”. In addition, the “MPC4 SHV-18 KP1012” value in the assay on KP1012 (SHV-18) is on record as “X (X = MPC@4 of less than 2 μg/mL.)”. Besides, the “MPC4 CMY-6, EC1010” value in the assay on EC1010 (CMY-6, class C) was “X (X = MPC@4 of less than 2 μg/mL.)”.
Take `O=C(O)[C@H]1/C(=C/CO)O[C@@H]2CC(=O)N21` [Clavulanic Acid]: in the assay on PAM2035 (class C), the “MPC4 PAM2035” value is above 40 µg/mL. In the assay with KPX1001 (OXA-2, class D), the “MPC4 OXA-2, KPX1001” value came out at 1.25 µg/mL.
Turning to `COC(=O)N1CC(CC(=O)O)OB(O)[C@@H](NC(=O)Cc2cccs2)C1` (stereo partly shown) [Compound 45], the “MPC4 SHV-5 ec308” value with ec308 (SHV-5) is listed as “Y (Y = MPC@4 of 2 μg/mL to 10 μg/mL.)”. Moreover, in the assay with KP1007 (OXA-10, class D), the “MPC4 OXA-10, KP1007” value is recorded as “X (X = MPC@4 of less than 2 μg/mL.)”. Also, in the assay with ec302 (TEM-10), the “MPC4 TEM-10 ec302” value is “Z (Z = MPC@4 of greater than 10 μg/mL.)”. Further, the “MPC4 CTX-M-14 KP1005” value in the assay with KP1005 (CTX-M-14) is listed as “Y (Y = MPC@4 of 2 μg/mL to 10 μg/mL.)”. Also, in the assay on KP1009 (CTX-M-15), the “MPC4 CTX-M-15 KP1009” value is “Y (Y = MPC@4 of 2 μg/mL to 10 μg/mL.)”. For the same molecule, in the assay on KP1010 (SHV-12), the “MPC4 SHV-12 KP1010” value is listed as “X (X = MPC@4 of less than 2 μg/mL.)”.
For `C[C@]1(Cn2ccnn2)[C@H](C(=O)O)N2C(=O)C[C@H]2S1(=O)=O` [Tazobactam], the “MPC4 PAM2035” value in the assay on PAM2035 (class C) was determined as 5 µg/mL. For the same molecule, the “MPC4 OXA-2, KPX1001” value in the assay with KPX1001 (OXA-2, class D) came to 40 µg/mL.
